Here are results for one compound from article PMC3090393, “New Noncovalent Inhibitors of Penicillin-Binding Proteins from Penicillin-Resistant Bacteria” (PLoS ONE, 2011).

Each structure is given as a SMILES string.

One data set deals with T1, PBP2a (Staphylococcus aureus, UniProt P07944).
T1 construct: made in house
The experiment in a line: PBP2a enzymatic inhibition assay (fluorescein-labeled ampicillin, residual penicillin binding activity). The data set is classed as biochemical, Staphylococcus aureus ATCC 43300. How it is done:
PBP2a from Staphylococcus aureus ATCC 43300 and PBP5fm from Enterococcus faecium D63r were overproduced and purified as described previously, [18].
Each of the purified PBPs (2.5 µM) were first incubated with 1 mM potential inhibitor in 100 mM phosphate buffer, 0.01% Triton X-100[19], pH 7, for 4 h at 30°C. Then, 25 µM fluorescein-labeled ampicillin[20] was added to detect the residual penicillin binding activity (RA). The samples were further incubated for 30 min at 37°C in a total volume of 20 µL. Denaturation buffer was added (0.1 M Tris/HCl, pH 6.8, containing 25% glycerol, 2% SDS, 20% β-mercaptoethanol and 0.02% bromophenol blue) and the samples were heated to 100°C for 1 min. The samples were then loaded onto a 10% SDS-acrilamide gel (10×7 cm) and electrophoresis was performed for 45 min at 180 V (12 mA). Detection and quantification of the RAs were with Molecular Image FX equipment and Quantity One software (BioRad, Hercules, CA, USA). Three independent experiments were carried out for each inhibitor.

For another data set, the target named is PBP2x 5204 (Streptococcus pneumoniae, UniProt P59676). Nature of the data set: PBP2x 5204 enzymatic inhibition assay (S2d hydrolysis, DTNB). The class given is biochemical, Streptococcus pneumoniae strain 5204. How it is done:
PBP2x-5204 from Streptococcus pneumonia and N-benzoyl-D-alanyl-thioglycolate S2d[21], [22] were prepared as previously described. All assays with PBP2x 5204 were carried out in 96-well microtiter plates (Brand, Wertheim, Germany). PBP2x 5204 (0.6 µM) was incubated in the presence of the potential inhibitors in 10 mM sodium phosphate buffer (pH 7.0) containing 70 mM D-alanine and 0.01 mg/mL BSA, for 4 h at 25°C. This preincubation was used to also detect slow binding inhibitors. After the preincubation, the RA of PBP2x 5204 was determined. The initial rate of hydrolysis of 1 mM S2d in the presence of 1 mM DTNB was determined by monitoring the increase in absorbance at 412 nm (DTNB: ε[Δ ε] = […]) using a microplate absorbance reader (Power Wave X, Biotek Instruments, Winooski, U.S.A.). The rate of spontaneous hydrolysis of S2d in the presence of the potential inhibitors was also determined in the absence of PBP2x 5204. All of the assays were carried out in triplicate. The determination of the RA of PBP2x 5204 in the absence of inhibitors was carried out six times on each plate. A test compound was considered as an inhibitor if the RA was <80%. In this case, to reveal false positives, the assays were also carried out under the same conditions in the presence of 0.01% Triton X-100. As described in the literature, promiscuous inhibitors (false positives) are slow binding, noncompetitive inhibitors. To avoid detailed kinetic investigations, it is possible to identify such compounds by carrying out the assays in the presence of Triton X-100[14], [19]. Promiscuous inhibitors show no inhibition in the presence of Triton X-100. The IC50 values in the presence of Triton X-100 were determined if the RAs were <50%. (RA: ∼50%, IC50∼c, c: concentration of compound in the assay; RA >50%, IC50 > c). The RA was measured over a range of concentrations, from which the IC50 values were determined by non-linear regression analysis, using Sigma Plot (Systat software) and fitting the data to the equation y = y0+(a×b)/(b+x)[23].

Data set [1] concerns protoplasts of S. aureus ATCC43300 resistant strain. Nature of the data set: Effect on protoplasts. The data set is classed as cell-based, Staphylococcus aureus. To be noted: concentration equivalent to 4 times the MIC; after ten minutes. How it is done: The importance of this hit compound is further underlined by its very promising minimum inhibitory concentrations (MICs) against several Gram-positive bacterial strains, including MRSA (32 µg/mL). […] This assumption is confirmed by the fact that for S. aureus ATCC25923 strain, sensitive to penicillin and devoid of PBP2a, compound 1 has the same MIC value as for the other two resistant S. aureus strains (Table 2) where PBP2a is present. To better understand the antibacterial activity of compound 1, we performed an experiment to evaluate the effect of compound 1 on the protoplasts of S. aureus ATCC43300 resistant strain, at a concentration equivalent to 4 times the MIC. […] Further analysis is needed to better understand the precise mode of action of these inhibitors on the bacterial cell.

As a reminder, the IC50 is the concentration that inhibits the measured activity by half. Broadly, the melting point is the temperature of the solid-liquid transition.

T1 sequence (P07944 whole entry): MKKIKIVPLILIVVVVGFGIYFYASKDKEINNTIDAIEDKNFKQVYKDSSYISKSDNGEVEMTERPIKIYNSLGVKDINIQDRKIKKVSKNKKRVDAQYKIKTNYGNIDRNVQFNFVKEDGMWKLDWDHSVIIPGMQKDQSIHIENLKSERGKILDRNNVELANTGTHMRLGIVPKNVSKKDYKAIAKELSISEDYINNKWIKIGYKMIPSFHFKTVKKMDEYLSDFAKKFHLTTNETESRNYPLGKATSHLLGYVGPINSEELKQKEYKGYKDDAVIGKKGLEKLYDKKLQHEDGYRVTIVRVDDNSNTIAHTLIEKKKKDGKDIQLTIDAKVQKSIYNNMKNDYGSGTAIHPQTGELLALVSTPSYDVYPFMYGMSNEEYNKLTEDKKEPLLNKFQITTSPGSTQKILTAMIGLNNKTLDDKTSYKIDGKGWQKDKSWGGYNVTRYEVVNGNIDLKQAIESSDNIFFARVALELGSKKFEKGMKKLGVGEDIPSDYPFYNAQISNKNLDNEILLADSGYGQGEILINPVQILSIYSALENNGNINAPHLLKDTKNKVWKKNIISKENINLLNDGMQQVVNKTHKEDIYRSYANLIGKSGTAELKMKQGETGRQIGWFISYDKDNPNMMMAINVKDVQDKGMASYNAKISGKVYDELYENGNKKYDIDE
PBP2x 5204, sequence (P59676 49-750): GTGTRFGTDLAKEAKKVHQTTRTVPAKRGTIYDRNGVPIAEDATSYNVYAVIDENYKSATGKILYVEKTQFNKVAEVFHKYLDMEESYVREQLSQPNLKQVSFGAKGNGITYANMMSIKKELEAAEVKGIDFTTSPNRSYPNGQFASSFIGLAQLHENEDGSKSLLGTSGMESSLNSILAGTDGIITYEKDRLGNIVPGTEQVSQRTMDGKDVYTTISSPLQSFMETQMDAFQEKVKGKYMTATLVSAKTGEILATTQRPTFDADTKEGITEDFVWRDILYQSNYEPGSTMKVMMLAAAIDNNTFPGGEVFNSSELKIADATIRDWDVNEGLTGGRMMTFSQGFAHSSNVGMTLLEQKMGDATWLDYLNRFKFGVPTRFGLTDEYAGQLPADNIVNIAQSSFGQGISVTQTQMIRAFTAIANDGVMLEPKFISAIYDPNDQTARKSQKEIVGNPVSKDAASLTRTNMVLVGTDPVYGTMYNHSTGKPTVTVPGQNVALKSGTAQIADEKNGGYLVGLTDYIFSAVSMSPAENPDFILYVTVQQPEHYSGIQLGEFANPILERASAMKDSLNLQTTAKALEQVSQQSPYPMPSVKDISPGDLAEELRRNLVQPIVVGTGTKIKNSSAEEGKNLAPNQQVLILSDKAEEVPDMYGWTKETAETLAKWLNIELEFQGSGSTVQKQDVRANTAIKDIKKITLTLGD

In the case of `CCCCOc1ccc2cc(S(=O)(=O)Nc3ccccc3C(=O)O)ccc2c1` [compound 1, 2-(6-butoxynaphthalene-2-sulfonamido)benzoic acid], the melting point is 192 to 194 °C. At PBP2a (4 h, residual activity of the enzyme at 1 mM inhibitor, 0.01% Triton X-100, mean of three experiments, read-out: PBP2a RA [%]), the remaining activity at 1000 µM stood at 0%. Also, the IC50 at PBP2a (in the presence of 0.01% Triton X-100) is 97 µM. Moreover, the IC50 on PBP2x 5204 (read-out: PBP2x5204 IC50, in the presence of 0.01% Triton X-100) came out at 391 µM. The “PBP2x5204 RA [%]” value on PBP2x 5204 (residual activity of the enzyme at 500 µM inhibitor, 240 min) amounted to 38%. Besides, the effect on protoplasts result in data set [1] is “complete lysis of protoplasts”.
